Test [1] deals with adjuvant arthritis models in rats. Put plainly: Paw edema inhibitory action test using adjuvant arthritis models in rats. In kind it is in vivo. Conditions: 504 h; Lewis rat, adjuvant-untreated (secondary inflammation) paw, day 21; 10 mg/kg/day oral once a day, day 0 to day 20; average of 8 rats per group; read-out: Paw edema inhibition rate (%). The method, then:
A paw edema inhibitory action test of the compounds of the present invention was performed using an adjuvant arthritis model in rats, which is one of the widely-used methods of evaluating in vivo antiarthritis effects of drugs.
As one of the widely-used methods of evaluating antiarthritic effects of drugs, a paw edema inhibitory action test using adjuvant arthritis models in rats is known. Accordingly, a paw edema inhibitory action test of the compounds of the present invention was performed, the paw edema inhibition rate was calculated, and the antiarthritic effect of each of the compounds of the present invention was evaluated using the obtained rate as an index.
A 1% aqueous methyl cellulose solution was added to each test compound to suspend it, whereby a 2 mg/mL test compound suspension was prepared.
Liquid paraffin was added to Mycobacterium butyricum to suspend it, whereby 6 mg/mL adjuvant was prepared.
• 1) The adjuvant (0.1 mL) was injected subcutaneously into a left hind paw sole of each rat (male, 9 weeks of age, Lewis rat) to induce arthritis. • 2) From the adjuvant injection day (i.e. on day 0) to day 20, the test compound suspension (10 mg/kg/day) was orally administered once a day consecutively. • 3) On the adjuvant injection day, day 1, day 4, day 7, day 11, day 14, day 18 and day 21, each paw volume of both hind paws was measured with a plethysmometer. • 4) A test was performed in the same manner as in 1) to 3) except that the 1% aqueous methyl cellulose solution was used instead of the test compound suspension, and the result was used as a control. (Method of Evaluation)
Each paw edema inhibition rate of paw edema in an adjuvant-untreated paw (secondary inflammation paw) in each test compound administration group to paw edema in a secondary inflammation paw in a control group was calculated, and the antiarthritic effect of each of the compounds of the present invention was evaluated using the obtained rate as an index.
The paw edema rate was calculated according to the following calculation equation 1, and then the paw edema inhibition rate (the average of 8 rats per group), which was used as an index of the antiarthritic effect, was calculated according to the calculation equation 2. Paw edema rate (%)=(Paw volume after adjuvant treatment/paw volume before adjuvant treatment)×100 (Calculation Equation 1) Paw edema inhibition rate (%)=100−{(Sx−100)/(So−100)}×100 (Calculation Equation 2) So: Paw edema rate of control group Sx: Paw edema rate of test compound suspension administration group (Test Results and Discussion)

Test [2] concerns choroidal neovascularization models in rats. Kind of test: Neovascularization incidence test using laser-induced choroidal neovascularization models in rats. Type of test: in vivo. Conditions: 168 h; Brown Norway rat, krypton laser photocoagulation; 30 mg/kg/day oral once a day for 7 days; fluorescein fundus photography on day 7; average of 3 to 4 rats and 6 to 8 eyes; read-out: Ratio of neovascularization incidence rate (% of Control). The method, then:
A neovascularization incidence test of the compounds of the present invention was performed using a choroidal neovascularization model in rats, which is one of the widely-used methods of evaluating in vivo choroidal neovascularization inhibitory effects of drugs.
As one of the widely-used methods of evaluating choroidal neovascularization inhibitory effects of drugs, a neovascularization incidence test using choroidal neovascularization models in rats was reported in Graefe's Arch. Cli. Exp. Ophthalmol., 235, 313-319 (1997). According to the method described in the above-mentioned document, a neovascularization incidence test of the compounds of the present invention was performed, the ratio of neovascularization incidence rate of each of the compounds of the present invention administration groups to a neovascularization incidence rate of vehicle administration group (control group) was calculated, and the choroidal neovascularization inhibitory effect of each of the compounds of the present invention was evaluated using the obtained ratio as an index.
A 1% aqueous methyl cellulose solution was added to each test compound to suspend it, whereby a 6 mg/10 mL test compound suspension was prepared.
• 1) A 7:1 mixed solution (1 mL/kg) of a 5% ketamine hydrochloride injection and a 2% xylazine hydrochloride injection was administered intramuscularly to rats (Brown Norway male rat, 8 weeks of age, weight: 200 to 250 g) to anesthetize them systemically. • 2) A tropicamide-phenylephrine hydrochloride ophthalmic solution (trade name: Mydrin-P) was instilled into eyes to cause mydriasis, and then photocoagulation was performed in a Bruch's membrane of each rat using a krypton laser photocoagulation apparatus.
The laser photocoagulation was performed at 8 spots per eye sparsely avoiding thick retinal vessels in a posterior section of ocular fundus and focusing on the deep layer of the retina. Photocoagulation conditions were adjusted to 100 μm of spot size, 100 mW of intensity and 0.1 sec. dulation. • 3) After the photocoagulation, the ocular fundus was photographed to confirm photocoagulation (laser irradiation) sites. (Method of Test and Method of Measurement) • 1) From the laser photocoagulation day (i.e. on day 0) to day 6, the test compound suspension (30 mg/kg/day) was administered orally once a day for 7 consecutive days. • 2) As the vehicle administration group (control group), a test was performed in the same manner as in 1) except that the 1% aqueous methyl cellulose solution was used instead of the test compound suspension, and the result was used as a control. (Method of Evaluation) • 1) On day 7 after the photocoagulation, 0.1 mL of a 10% aqueous fluorescein solution was injected into a tail vein of the rat, and fluorescein fundus photography was performed. • 2) Next, in the fluorescein fundus photography, a spot where fluorescence leak was not observed was judged as negative, and a spot where fluorescence leak was observed was judged as positive. Photocoagulation sites where a little fluorescence leak was observed were judged as positive when two such sites are present. • 3) The neovascularization incidence rate was calculated according to the calculation equation 1. The ratio of the neovascularization incidence rate of the test compound administration group to that of the vehicle administration group was calculated according to the calculation equation 2 using the neovascularization incidence rate of the respective administration groups. […]

Where a name gives a salt, the structure may show the parent alone.

`Cc1cc(C)cc(NC(=O)c2cccnc2SCc2ccnc(N)c2)c1` [Compound 3-1, 2-(2-Aminopyridin-4-ylmethylthio)-N-(3,5-dimethylphenyl)pyridine-3-carboxamide monohydrochloride]: in test [1], the inhibition in vivo at 10 mg/kg/day was 48%. The response vs control in vivo at 30 mg/kg/day in test [2] worked out at 12%.

As for `CNc1cc(CSc2ncccc2C(=O)Nc2ccc(OC(F)(F)F)cc2)ccn1` [Compound 3-8, 2-(2-Methylaminopyridin-4-ylmethylthio)-N-(4-trifluoromethoxyphenyl)pyridine-3-carboxamide monohydrochloride], the inhibition in vivo at 10 mg/kg/day in test [1] turned out to be 30%. Further, the response vs control in vivo at 30 mg/kg/day in test [2] turned out to be 6%.

For `Nc1cc(CSc2ncccc2C(=O)Nc2ccc(OC(F)(F)F)cc2)ccn1` [Compound 3-10, 2-(2-Aminopyridin-4-ylmethylthio)-N-(4-trifluoromethoxyphenyl)pyridine-3-carboxamide], the inhibition in vivo at 10 mg/kg/day in test [1] turned out to be 35%. Further, the response vs control in vivo at 30 mg/kg/day in test [2] stood at 7%.

Take `CC(=O)Nc1cc(CSc2ncccc2C(=O)Nc2cc(C)cc(C)c2)ccn1` [Compound 4-1, 2-(2-Acetylaminopyridin-4-ylmethylthio)-N-(3,5-dimethylphenyl)pyridine-3-carboxamide]: in test [1], the inhibition in vivo at 10 mg/kg/day stood at 90%. Also, the response vs control in vivo at 30 mg/kg/day in test [2] worked out at 3%.

`CC(=O)Nc1cc(CSc2ncccc2C(=O)Nc2ccc(Cl)cc2)ccn1` [Compound 4-10, 2-(2-Acetylaminopyridin-4-ylmethylthio)-N-(4-chlorophenyl)pyridine-3-carboxamide]: the inhibition in vivo at 10 mg/kg/day in test [1] came out at 71%. Also, the response vs control in vivo at 30 mg/kg/day in test [2] was 9%.

Consider `CC(=O)Nc1cc(CSc2ncccc2C(=O)Nc2ccc(OC(F)(F)F)cc2)ccn1` [Compound 4-11, 2-(2-Acetylaminopyridin-4-ylmethylthio)-N-(4-trifluoromethoxyphenyl)pyridine-3-carboxamide], for which the inhibition in vivo at 10 mg/kg/day in test [1] was 65%. Further, in test [2], the response vs control in vivo at 30 mg/kg/day was determined as 0%.

Regarding `CNC(=O)Nc1cc(CSc2ncccc2C(=O)Nc2cc(C)cc(C)c2)ccn1` [Compound 9-1, N-(3,5-Dimethylphenyl)-2-[2-(N′-methylureido)pyridin-4-ylmethylthio]pyridine-3-carboxamide], in test [1], the inhibition in vivo at 10 mg/kg/day amounted to 55%. Also, in test [2], the response vs control in vivo at 30 mg/kg/day amounted to 8%.

On to `CC(=O)OCC(=O)Nc1cc(CSc2ncccc2C(=O)Nc2cc(C)cc(C)c2)ccn1` [Compound 10-1, 2-(2-Acetoxyacetylaminopyridin-4-ylmethylthio)-N-(3,5-dimethylphenyl)pyridine-3-carboxamide], for which the inhibition in vivo at 10 mg/kg/day in test [1] amounted to 59%. Further, in test [2], the response vs control in vivo at 30 mg/kg/day came to 11%.

As to `O=C(CO)Nc1cc(CSc2ncccc2C(=O)Nc2ccc(OC(F)(F)F)cc2)ccn1` [Compound 12-1, 2-(2-Hydroxyacetylaminopyridin-4-ylmethylthio)-N-(4-trifluoromethoxyphenyl)pyridine-3-carboxamide], the inhibition in vivo at 10 mg/kg/day in test [1] came to 48%. Also, the response vs control in vivo at 30 mg/kg/day in test [2] worked out at 6%.

For the origin of these results see patent publication US7544703B2, “Cyclic compound having 4-pyridylalkylthio group having substituted or unsubstituted amino group introduced therein” (Santen Pharmaceutical Co., Ltd., priority 2004, dated 2009).
